Source: patent US12466846B2, “Siloxane derivatives of amino acids having surface-active properties” (AdvanSix Resins & Chemicals LLC, priority 2022, dated 2025)

Test: Critical micelle concentration and minimum surface tension from surface tension versus concentration in water, Wilhelmy plate method
Type: physicochemical
Details: for plateau value of minimum surface tension that can be reached: in water, Wilhelmy plate, 23° C.; for interfacial / surfactant activity (in words): judged from the plateau minimum surface tension and CMC in water
From the text: These properties may be measured and described by various methods. One method by which surfactants may be described is by the molecule's critical micelle concentration (CMC). CMC may be defined as the concentration of a surfactant at which micelles form, and above which all additional surfactant is incorporated into micelles.
As surfactant concentration increases, surface tension decreases. Once the surface is completely overlaid with surfactant molecules, micelles begin to form. This point represents the CMC, as well as the minimum surface tension. Further addition of surfactant will not further affect the surface tension. CMC may therefore be measured by observing the change in surface tension as a function of surfactant concentration. One such method for measuring this value is the Wilhemy plate method. A Wilhelmy plate is usually a thin iridium-platinum plate attached to a balance by a wire and placed perpendicularly to the air-liquid interface. The balance is used to measure the force exerted on the plate by wetting. This value is then used to calculate the surface tension (γ) according to Equation 1: γ=F/l cos θ: Equation 1 wherein I is equal to the wetted perimeter (2w+2d, in which w and d are the plate thickness and width, respectively) and cos θ, the contact angle between the liquid and the plate, is assumed to be […] in the absence of an extant literature value.
Nuclear magnetic resonance (NMR) spectroscopy was performed on a Bruker 500 MHz spectrometer. The critical micelle concentration (CMC) was determined by the Wilhelmy plate method at 23° C. with a tensiometer (DCAT 11, DataPhysics Instruments GmbH) equipped with a Pt—Ir plate. Dynamic surface tension was determined with a bubble pressure tensiometer (Krüss BP100, Krüss GmbH), at 23° C. Contact angle was determined with the optical contact angle goniometer (OCA 15 Pro, DataPhysics GmbH) equipped with a digital camera.

## C[N+](C)(CCCCCC(=O)O)CCCCCC(=O)NCCC[Si](O[Si](C)(C)C)(O[Si](C)(C)C)O[Si](C)(C)C [Surfactant 9a, N-(5-carboxypentyl)-6-((3-(1,1,1,5,5,5-hexamethyl-3-((trimethylsilyl)oxy)trisiloxan-3-yl)propyl)amino)-N,N-dimethyl-6-oxohexan-1-aminium bromide]
  plateau value of minimum surface tension that can be reached: about 20.52 mN/m

## CCOP(=O)(CCC[N+](C)(C)CCCCCC(=O)NCCC[Si](O[Si](C)(C)C)(O[Si](C)(C)C)O[Si](C)(C)C)OCC [Surfactant 6, N-(3-(diethoxyphosphoryl)propyl)-6-((3-(1,1,1,5,5,5-hexamethyl-3-((trimethylsilyl)oxy)trisiloxan-3-yl)propyl)amino)-N,N-dimethyl-6-oxohexan-1-aminium bromide]
  plateau value of minimum surface tension that can be reached: about 20.48 mN/m
  interfacial / surfactant activity (in words): outstanding interfacial activity

## C[N+](C)(CCO)CCCCCC(=O)NCCC[Si](O[Si](C)(C)C)(O[Si](C)(C)C)O[Si](C)(C)C [Surfactant 8, 6-((3-(1,1,1,5,5,5-hexamethyl-3-((trimethylsilyl)oxy)trisiloxan-3-yl)propyl)amino)-N-(2-hydroxyethyl)-N,N-dimethyl-6-oxohexan-1-aminium iodide]
  plateau value of minimum surface tension that can be reached: about 20.41 mN/m
  interfacial / surfactant activity (in words): outstanding interfacial activity

## C[N+](C)(CCCO)CCCCCC(=O)NCCC[Si](O[Si](C)(C)C)(O[Si](C)(C)C)O[Si](C)(C)C [Surfactant 7, 6-((3-(1,1,1,5,5,5-hexamethyl-3-((trimethylsilyl)oxy)trisiloxan-3-yl)propyl)amino)-N-(3-hydroxypropyl)-N,N-dimethyl-6-oxohexan-1-aminium iodide]
  plateau value of minimum surface tension that can be reached: about 20.61 mN/m
  interfacial / surfactant activity (in words): outstanding interfacial activity

## C[N+](C)(CCCCCC(=O)NCCC[Si](O[Si](C)(C)C)(O[Si](C)(C)C)O[Si](C)(C)C)CCC[N+](C)(C)CCCCCC(=O)NCCC[Si](O[Si](C)(C)C)(O[Si](C)(C)C)O[Si](C)(C)C [Surfactant 10, N^1,N^3-bis(6-((3-(1,1,1,5,5,5-hexamethyl-3-((trimethylsilyl)oxy)trisiloxan-3-yl)propyl)amino)-6-oxohexyl)-N^1,N^1,N^3,N^3-tetramethylpropane-1,3-diaminium dibromide]
  plateau value of minimum surface tension that can be reached: about 22.12 mN/m
  interfacial / surfactant activity (in words): interfacial activity

## C[N+](C)(CCCCCC(=O)NCCC[Si](O[Si](C)(C)C)(O[Si](C)(C)C)O[Si](C)(C)C)Cc1ccccc1 [Surfactant 1, N-benzyl-6-((3-(1,1,1,5,5,5-hexamethyl-3-((trimethylsilyl)oxy)trisiloxan-3-yl)propyl)amino)-N,N-dimethyl-6-oxohexan-1-aminium bromide]
  plateau value of minimum surface tension that can be reached: around 20.67 mN/m
  interfacial / surfactant activity (in words): outstanding interfacial activity

## C#CC[N+](C)(C)CCCCCC(=O)NCCC[Si](O[Si](C)(C)C)(O[Si](C)(C)C)O[Si](C)(C)C [Surfactant 4, 6-((3-(1,1,1,5,5,5-hexamethyl-3-((trimethylsilyl)oxy)trisiloxan-3-yl)propyl)amino)-N,N-dimethyl-6-oxo-N-(prop-2-yn-1-yl)hexan-1-aminium bromide]
  plateau value of minimum surface tension that can be reached: about 20.54 mN/m
  interfacial / surfactant activity (in words): outstanding interfacial activity

## C=CC[N+](C)(C)CCCCCC(=O)NCCC[Si](O[Si](C)(C)C)(O[Si](C)(C)C)O[Si](C)(C)C [Surfactant 3, N-allyl-6-((3-(1,1,1,5,5,5-hexamethyl-3-((trimethylsilyl)oxy)trisiloxan-3-yl)propyl)amino)-N,N-dimethyl-6-oxohexan-1-aminium iodide]
  plateau value of minimum surface tension that can be reached: about 20.67 mN/m
  interfacial / surfactant activity (in words): outstanding interfacial activity

## CCOC(=O)C[N+](C)(C)CCCCCC(=O)NCCC[Si](O[Si](C)(C)C)(O[Si](C)(C)C)O[Si](C)(C)C [Surfactant 2, N-(2-ethoxy-2-oxoethyl)-6-((3-(1,1,1,5,5,5-hexamethyl-3-((trimethylsilyl)oxy)trisiloxan-3-yl)propyl)amino)-N,N-dimethyl-6-oxohexan-1-aminium bromide]
  plateau value of minimum surface tension that can be reached: around 20.36 mN/m
  interfacial / surfactant activity (in words): outstanding interfacial activity

## COCCOCC[N+](C)(C)CCCCCC(=O)NCCC[Si](O[Si](C)(C)C)(O[Si](C)(C)C)O[Si](C)(C)C [Surfactant 5, 6-((3-(1,1,1,5,5,5-hexamethyl-3-((trimethylsilyl)oxy)trisiloxan-3-yl)propyl)amino)-N-(2-(2-methoxyethoxy)ethyl)-N,N-dimethyl-6-oxohexan-1-aminium bromide]
  plateau value of minimum surface tension that can be reached: about 20.40 mN/m
  interfacial / surfactant activity (in words): outstanding interfacial activity

## C[N+](C)(CCCCCC(=O)NCCC[Si](O[Si](C)(C)C)(O[Si](C)(C)C)O[Si](C)(C)C)CC(=O)O [Surfactant 9b, N-(carboxymethyl)-6-((3-(1,1,1,5,5,5-hexamethyl-3-((trimethylsilyl)oxy)trisiloxan-3-yl)propyl)amino)-N,N-dimethyl-6-oxohexan-1-aminium bromide]
  plateau value of minimum surface tension that can be reached: about 29.16 mN/m
  interfacial / surfactant activity (in words): excellent activity
